Consider 30 compounds from ChEMBL document CHEMBL5325485, “Design, synthesis and biological evaluation of salicylanilides as novel allosteric inhibitors of human pancreatic lipase” (Bioorg Med Chem, 2023).

One experiment concerns the target T1, Pancreatic triacylglycerol lipase (Homo sapiens) (UniProt P16233).
T1 sequence (whole entry): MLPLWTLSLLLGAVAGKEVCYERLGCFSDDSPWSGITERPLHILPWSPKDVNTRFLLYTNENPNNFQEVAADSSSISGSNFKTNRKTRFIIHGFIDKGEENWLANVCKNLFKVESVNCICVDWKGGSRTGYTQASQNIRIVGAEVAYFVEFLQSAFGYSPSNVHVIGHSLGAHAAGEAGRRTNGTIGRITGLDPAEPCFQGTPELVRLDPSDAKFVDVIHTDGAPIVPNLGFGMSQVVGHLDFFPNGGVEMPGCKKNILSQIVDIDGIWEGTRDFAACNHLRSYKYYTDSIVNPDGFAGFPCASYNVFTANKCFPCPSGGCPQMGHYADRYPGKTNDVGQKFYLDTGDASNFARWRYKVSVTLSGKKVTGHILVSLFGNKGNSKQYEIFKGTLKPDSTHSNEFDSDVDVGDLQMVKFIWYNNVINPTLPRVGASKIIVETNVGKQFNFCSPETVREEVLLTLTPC
Briefly: Binding affinity to human Pancreatic lipase assessed as quenching constant by fluorescence quenching assay based spectrophotometer analysis. The following applies: filed as negative allosteric modulator.
`O=C(Nc1ccc(Oc2ccc(Cl)cc2)c(Cl)c1)c1cc(F)cc(F)c1O`: the Kq was 3.61 10^14L/mol/s.
For the compound `O=C(Nc1ccc(Oc2ccc(Cl)cc2)c(Cl)c1)c1cc(Cl)cc(Cl)c1O`, the Kq is 3.39 10^14L/mol/s.

The target of the next experiment is T1, Pancreatic triacylglycerol lipase (Homo sapiens). Put plainly: Binding affinity to human Pancreatic lipase assessed as Stem-Volmer quenching constant by fluorescence quenching assay based spectrophotometer analysis. The following applies: filed as negative allosteric modulator.
For `O=C(Nc1ccc(Oc2ccc(Cl)cc2)c(Cl)c1)c1cc(F)cc(F)c1O`, the KSV is 3.61 10^6L/mol.
For the compound `O=C(Nc1ccc(Oc2ccc(Cl)cc2)c(Cl)c1)c1cc(Cl)cc(Cl)c1O`, the KSV is 3.39 10^6L/mol.

For another experiment, the target named is T2, Pancreatic triacylglycerol lipase (Homo sapiens, UniProt P16233).
T2 sequence (P16233 whole entry): T1 sequence (whole entry)
Put plainly: Negative allosteric modulator activity at human Pancreatic lipase using DDAO-ol as fluorescent substrate preincubated for 3 mins followed by substrate addition measured after 20 mins by microplate reader assay.
Details: not given
For `O=C(Nc1ccc(Oc2ccc(Cl)cc2)c(Cl)c1)c1ccccc1Cl`, half-maximal inhibition (IC50) was put at 15 µM.
As for `O=C(Nc1ccc(Oc2ccc(Cl)cc2)cc1)c1ccccc1O`, half-maximal inhibition (IC50) was put at 20.4 µM.
For `CCCCCCNc1ccc(C(=O)Nc2ccc(Oc3ccc(Cl)cc3)c(Cl)c2)c(O)c1`, the midpoint of inhibition, the IC50, lay at 12.4 µM.
Take `CCCOc1ccccc1C(=O)Nc1ccc(Oc2ccc(Cl)cc2)c(Cl)c1`: the half-inhibitory concentration (IC50) (in general, the concentration that inhibits the measured activity by half) amounted to 18.3 µM.
On to `O=C(Nc1ccc(Oc2ccc(Cl)cc2)c(Cl)c1)c1ccc(F)cc1O`, for which the IC50 is 4.27 µM.
Compound `O=C(Nc1ccc(O)cc1)c1ccccc1O` [OSALMID] had an IC50 of over 500 µM.
With `COc1ccccc1C(=O)Nc1ccc(Oc2ccc(Cl)cc2)c(Cl)c1`, the IC50 came to 16.7 µM.
Still for that read-out and setting: with `CC(C)=CC[C@]12Oc3cc(O)c([C@H]4C=C(C)C[C@H](c5ccc(O)cc5O)[C@H]4C(=O)c4ccc(O)cc4O)c(O)c3C(=O)[C@@]1(O)Oc1cc(O)ccc12` [SANGGENON C] the figure was 3.28 µM; with `O=C(Nc1ccc(Oc2ccc(Cl)cc2)c(Cl)c1)c1cc(I)cc(I)c1O` [RAFOXANIDE], 2.52 µM; with `CCCNc1ccc(C(=O)Nc2ccc(Oc3ccc(Cl)cc3)c(Cl)c2)c(O)c1`, 5.99 µM.
In the case of `O=C(Nc1ccc(Oc2ccc(Cl)cc2)c(Cl)c1)c1ccc(Cl)cc1O`, the IC50 was 12.4 µM.
As for `Cc1ccccc1C(=O)Nc1ccc(Oc2ccc(Cl)cc2)c(Cl)c1`, inhibition was half-maximal at 27.4 µM (IC50).
In the case of `O=C(Nc1ccc(Oc2ccc(F)cc2)c(F)c1)c1ccccc1O`, the IC50 came out at 11.4 µM.
With `Nc1ccc(C(=O)Nc2ccc(Oc3ccc(Cl)cc3)c(Cl)c2)c(O)c1`, 6.27 µM corresponded to half-maximal inhibition (IC50).
Take `O=C(Nc1ccc(Oc2ccc(Cl)cc2)c(Cl)c1)c1cc(F)cc(F)c1O`: the IC50 came to 1.86 µM.
`O=C(Nc1ccc(Oc2ccc(Cl)cc2)c(Cl)c1)c1ccccc1Br` yielded a concentration for half-maximal inhibition (IC50) of 11 µM.
Still for that read-out and setting: with `Cc1ccc(Oc2ccc(NC(=O)c3ccccc3O)cc2)cc1` the figure was 12 µM; with `COc1ccc(Oc2ccc(NC(=O)c3ccccc3O)cc2)cc1`, 32.7 µM; with `O=C(Nc1ccc(Oc2ccc(Cl)cc2)c(Cl)c1)c1ccccc1F`, 23.7 µM.
`O=C(Nc1ccc(Oc2ccccc2)cc1)c1ccccc1O` registered an IC50 of 19.1 µM.
Consider `O=C(Nc1ccc(Oc2ccc(Cl)cc2)c(Cl)c1)c1cc(Br)cc(Br)c1O`, for which the IC50 stood at 2.13 µM.
`COc1cccc(O)c1C(=O)Nc1ccc(Oc2ccc(Cl)cc2)c(Cl)c1` displayed an IC50 of 26.3 µM.
Same read-out and setting: the figure for `O=C(Nc1ccc(Oc2ccc(Cl)cc2)c(Cl)c1)c1ccccc1OC(F)(F)F` is 15.8 µM; for `O=C(Nc1ccc(Oc2ccccc2)c(Cl)c1)c1ccccc1O` it is 9.96 µM.
`CC(C)Oc1ccc(Oc2ccc(NC(=O)c3ccccc3O)cc2)cc1`: half-maximal inhibition (IC50) was put at 9.24 µM.
On the same count and under the same terms, the figure for `COc1ccc(C(=O)Nc2ccc(Oc3ccc(Cl)cc3)c(Cl)c2)c(O)c1` is 10 µM; for `O=C(Nc1ccc(Oc2ccc(Cl)cc2)c(Cl)c1)c1ccccc1O` it is 6.75 µM.
The compound `O=C(Nc1ccc(Oc2ccc(Cl)cc2)c(Cl)c1)c1ccccc1` gave an IC50 of 10.5 µM.
Compound `O=C(Nc1ccc(Oc2ccc(Cl)cc2)c(Cl)c1)c1cc(Cl)cc(Cl)c1O` had an IC50 of 1.63 µM.

For a further experiment, the target named is T2, Pancreatic triacylglycerol lipase. Put plainly: Inhibition of Pancreatic lipase (unknown origin) using 4-MUO as fluorescent substrate preincubated for 3 mins followed by substrate addition measured after 20 mins by microplate reader assay.
Details: not given
`CC1(C)CC[C@]2(C(=O)O)CC[C@]3(C)C(=CC[C@@H]4[C@@]5(C)CCC(=O)C(C)(C)[C@@H]5CC[C@]43C)[C@@H]2C1` [OLEANONIC ACID] came in with an IC50 of 0.49 µM.

The next experiment shares this target. Put plainly: Negative allosteric modulator activity at human Pancreatic lipase assessed as inhibition of PL-mediated DDAO-ol hydrolysis by measuring inhibition constant using DDAO-ol as fluorescent substrate by Lineweaver-Burk plot analysis.
Details: not given
Regarding `O=C(Nc1ccc(Oc2ccc(Cl)cc2)c(Cl)c1)c1cc(F)cc(F)c1O`, the Ki (as a rule, a measure of affinity in units of concentration, obtained from inhibition or displacement) was determined as 1.67 µM.
Turning to `O=C(Nc1ccc(Oc2ccc(Cl)cc2)c(Cl)c1)c1cc(Cl)cc(Cl)c1O`, the Ki came to 1.7 µM.
